These results are taken from EP4803513A1, “SUBSTITUTED QUINAZOLINE COMPOUND, PREPARATION METHOD THEREFOR, PHARMACEUTICAL COMBINATION THEREOF, AND USE THEREOF” (Hongyun Biotech Co., Ltd., priority 2023, dated 2025).

For the test, the system named is BRK-BaF3 cells. Put plainly: Cell antiproliferative activity assay (CCK-8), BRK-BaF3. The note with it: 72 h, CCK-8, 3 days incubation. Format: cell-based. On the procedure:
The activity of compounds against BRK kinase can be evaluated by their inhibition of the growth of the BRK kinase-stably transfected BaF3 cell line (BRK-BaF3) and wild-type BaF3 cells (WT-BaF3). […] The larger the ratio of the half-maximal growth inhibitory concentration (IC50) of a compound between WT-BaF3 and BRK-BaF3 cells, the better the selectivity of the compound.
BRK-BaF3, WT-BaF3, WEHI cell line, and breast cancer cell line T47D were cultured using RPMI 1640 Basal medium or DMEM (Dulbecco's Modified Eagle Medium) (Shanghai Peiyuan Biotechnology, L220KJ), supplemented with 10% FBS (Gibco, REF 10099-141C) and 1% P/S (Shanghai Peiyuan Biotechnology, S110JV), in an incubator (Thermo 3020) at 37°C with 5% CO2. Cell viability was above 95%. Cells were passaged at a 3:1 ratio every 3-4 days. For WT-BaF3 cells, WEHI cells were first cultured, and their culture supernatant was filtered through a 0.22 µm filter. This supernatant was added at 10% to the regular culture medium to supplement IL-3 required for WT-BaF3 cell proliferation, which served as the culture medium for WT-BaF3. For testing, cells were first collected and counted, then prepared into a cell suspension at 100,000 cells/mL and plated at 100 µL per well. Drug concentrations started from 10 µM and were serially diluted 3:1. After incubation for 3 days, 20 µL of CCK-8 detection reagent (Targetmol C005) was added to each well. After incubation for 2-4 hours, OD450 was measured using a microplate reader (Varioskan LUX, Thermo Scientific). After subtracting the blank background, the curve was fitted and the IC50 was calculated using XLfit software.
As a reminder, the IC50 is the point on the concentration scale where inhibition reaches its midpoint. The low end stands for higher potency, the high end for lower potency. Take `Cc1c[nH]c(=O)cc1-c1cc(C(C)C)c2nc(Nc3cnn(CC(C)(C)O)c3C)ncc2c1` [I-180]: the IC50 is ≤ 0.02 µM.
Under `Cc1ccc2[nH]ncc2c1-c1cc(C(C)C)c2nc(Nc3cn(CCO)nc3C)ncc2c1` [I-182] stands ≤ 0.02 µM.
For `Cc1ccc2[nH]ncc2c1-c1cc(C(C)C)c2nc(Nc3cnn(CCO)c3C)ncc2c1` [I-183] the value was ≤ 0.02 µM.
Under `Cc1nn(CCO)cc1Nc1ncc2cc(-c3cncc4ccccc34)cc(C(C)C)c2n1` [I-184] stands ≤ 0.02 µM; under `Cc1cc2cn[nH]c2cc1-c1cc(C(C)C)c2nc(Nc3cn(CCO)nc3C)ncc2c1` [I-185], 0.02 to 0.1 µM; under `Cc1nn(CCO)cc1Nc1ncc2cc(-c3c[nH]c4ncccc34)cc(C(C)C)c2n1` [I-186], 0.02 to 0.1 µM.
As to `Cc1nn(C)cc1Nc1ncc2cc(-c3cc[nH]c(=O)c3)cc(C(C)C)c2n1` [III-1], the half-inhibitory concentration (IC50) was 0.02 to 0.1 µM.
Under `Cc1c[nH]c(=O)cc1-c1cc(C(C)C)c2nc(Nc3cnn(C)c3C)ncc2c1` [III-3] stands ≤ 0.02 µM.
Consider `Cc1c[nH]c(=O)cc1-c1cc(C(C)C)c2nc(Nc3cn(C)nc3Cl)ncc2c1` [III-5], for which the IC50 was ≤ 0.02 µM.
For `COc1nn(C)cc1Nc1ncc2cc(-c3cc(=O)[nH]cc3C)cc(C(C)C)c2n1` [III-6], the IC50 lay in the range of 0.02 to 0.1 µM.
Under `Cc1c[nH]c(=O)cc1-c1cc(C(C)C)c2nc(Nc3cn(C(F)F)nc3C)ncc2c1` [III-7] stands ≤ 0.02 µM; under `Cc1c[nH]c(=O)cc1-c1cc(C(C)C)c2nc(Nc3cnn(C(F)F)c3C)ncc2c1` [III-8], ≤ 0.02 µM; under `[2H]C([2H])([2H])n1ncc(Nc2ncc3cc(-c4cc(=O)[nH]cc4C)cc(C(C)C)c3n2)c1C` [III-10], ≤ 0.02 µM.
For `Cc1c[nH]c(=O)cc1-c1cc(C(C)C)c2nc(Nc3c[nH]nc3C)ncc2c1` [III-11] the value was ≤ 0.02 µM.
On to `CCn1cc(Nc2ncc3cc(-c4cc(=O)[nH]cc4C)cc(C(C)C)c3n2)c(C)n1` [III-12], for which the half-maximal inhibitory concentration (IC50) is ≤ 0.02 µM.
Under `Cc1c[nH]c(=O)cc1-c1cc(C(C)C)c2nc(Nc3cn(C4CCN(C)CC4)nc3C)ncc2c1` [III-13] stands ≤ 0.02 µM; under `Cc1c[nH]c(=O)cc1-c1cc(C(C)C)c2nc(Nc3cn(C4CCN(C(C)C)CC4)nc3C)ncc2c1` [III-16], ≤ 0.02 µM; under `Cc1c[nH]c(=O)cc1-c1cc(C(C)C)c2nc(Nc3cnn(C4CCN(C(C)C)CC4)c3C)ncc2c1` [III-17], ≤ 0.02 µM.
Under `Cc1c[nH]c(=O)cc1-c1cc(C(C)C)c2nc(Nc3cn(C4CCN(C5COC5)CC4)nc3C)ncc2c1` [III-18] stands 0.02 to 0.1 µM.
For `Cc1c[nH]c(=O)cc1-c1cc(C(C)C)c2nc(Nc3cn([C@@H]4C[C@H]5CC[C@@H](C4)N5C)nc3C)ncc2c1` [III-25] the value was 0.02 to 0.1 µM; for `Cc1c[nH]c(=O)cc1-c1cc(C(C)C)c2nc(Nc3cnn([C@@H]4C[C@H]5CC[C@@H](C4)N5C)c3C)ncc2c1` [III-26], ≤ 0.02 µM.
Consider `Cc1c[nH]c(=O)cc1-c1cc(C(C)C)c2nc(Nc3cn(C4CCN(C)CC4)nc3C(F)(F)F)ncc2c1` [III-27], for which the IC50 is ≤ 0.02 µM.
Under `Cc1c[nH]c(=O)cc1-c1cc(C(C)C)c2nc(Nc3cnn(C4CCN(C)CC4)c3C(F)(F)F)ncc2c1` [III-28] stands ≤ 0.02 µM; under `CCc1nn(C2CCN(C)CC2)cc1Nc1ncc2cc(-c3cc(=O)[nH]cc3C)cc(C(C)C)c2n1` [III-29], ≤ 0.02 µM; under `CCc1c(Nc2ncc3cc(-c4cc(=O)[nH]cc4C)cc(C(C)C)c3n2)cnn1C1CCN(C)CC1` [III-30], ≤ 0.02 µM.
For `COc1nn(C2CCN(C)CC2)cc1Nc1ncc2cc(-c3cc(=O)[nH]cc3C)cc(C(C)C)c2n1` [III-31] the value was ≤ 0.02 µM; for `COc1nn(C2CCN(C(C)C)CC2)cc1Nc1ncc2cc(-c3cc(=O)[nH]cc3C)cc(C(C)C)c2n1` [III-32], ≤ 0.02 µM; for `Cc1c[nH]c(=O)cc1-c1cc(C(C)C)c2nc(Nc3cn(-c4cncnc4)nc3C)ncc2c1` [III-34], 0.02 to 0.1 µM.
Under `Cc1c[nH]c(=O)cc1-c1cc(C(C)C)c2nc(Nc3cn(C4CCCN(C)CC4)nc3C)ncc2c1` (stereo not drawn) [III-35] stands ≤ 0.02 µM; under `Cc1c[nH]c(=O)cc1-c1cc(C(C)C)c2nc(Nc3cnn(C4CCCN(C)CC4)c3C)ncc2c1` (stereo not drawn) [III-36], ≤ 0.02 µM.
As for `Cc1c[nH]c(=O)cc1-c1cc(C(C)C)c2nc(Nc3cn(C4CCN(C)C4)nc3C)ncc2c1` (stereo not drawn) [III-38], the IC50 was ≤ 0.02 µM.
Consider `Cc1c[nH]c(=O)cc1-c1cc(C(C)C)c2nc(Nc3cn(C4CCN(C(C)C)C4)nc3C)ncc2c1` (stereo not drawn) [III-39], for which the IC50 is ≤ 0.02 µM.
Under `Cc1c[nH]c(=O)cc1-c1cc(C(C)C)c2nc(Nc3cn(C4COC4)nc3C)ncc2c1` [III-40] stands ≤ 0.02 µM; under `COCCn1cc(Nc2ncc3cc(-c4cc(=O)[nH]cc4C)cc(C(C)C)c3n2)c(C)n1` [III-42], ≤ 0.02 µM; under `COCCn1ncc(Nc2ncc3cc(-c4cc(=O)[nH]cc4C)cc(C(C)C)c3n2)c1C` [III-43], ≤ 0.02 µM.
In the case of `COCCOCCn1cc(Nc2ncc3cc(-c4cc(=O)[nH]cc4C)cc(C(C)C)c3n2)c(C)n1` [III-44], the IC50 fell in the range of 0.02 to 0.1 µM.
For `COC[C@@H](C)n1cc(Nc2ncc3cc(-c4cc(=O)[nH]cc4C)cc(C(C)C)c3n2)c(C)n1` [III-45] the value was ≤ 0.02 µM; for `COC[C@@H](C)n1ncc(Nc2ncc3cc(-c4cc(=O)[nH]cc4C)cc(C(C)C)c3n2)c1C` [III-46], ≤ 0.02 µM.
Under `Cc1c[nH]c(=O)cc1-c1cc(C(C)C)c2nc(Nc3cn([C@@H](C)C(=O)N(C)C)nc3C)ncc2c1` [III-48] stands ≤ 0.02 µM; under `Cc1c[nH]c(=O)cc1-c1cc(C(C)C)c2nc(Nc3cnn([C@@H](C)C(=O)N(C)C)c3C)ncc2c1` [III-49], 0.02 to 0.1 µM.
Under `CCN(C)CCn1cc(Nc2ncc3cc(-c4cc(=O)[nH]cc4C)cc(C(C)C)c3n2)c(C)n1` [III-51] stands ≤ 0.02 µM; under `CCN(C)CCn1ncc(Nc2ncc3cc(-c4cc(=O)[nH]cc4C)cc(C(C)C)c3n2)c1C` [III-52], ≤ 0.02 µM.
Take `COCCN(C)CCn1cc(Nc2ncc3cc(-c4cc(=O)[nH]cc4C)cc(C(C)C)c3n2)c(C)n1` [III-54]: the IC50 is ≤ 0.02 µM.
Consider `COCCN(C)CCn1ncc(Nc2ncc3cc(-c4cc(=O)[nH]cc4C)cc(C(C)C)c3n2)c1C` [III-55], for which the IC50 is ≤ 0.02 µM.
Under `Cc1c[nH]c(=O)cc1-c1cc(C(C)C)c2nc(Nc3cn(CCN(C)CC(C)(C)O)nc3C)ncc2c1` [III-56] stands ≤ 0.02 µM.
As for `Cc1c[nH]c(=O)cc1-c1cc(C(C)C)c2nc(Nc3cnn(CCN(C)CC(C)(C)O)c3C)ncc2c1` [III-57], the half-maximal inhibitory concentration (IC50) is ≤ 0.02 µM.
Under `Cc1c[nH]c(=O)cc1-c1cc(C(C)C)c2nc(Nc3cn(CCN4CCOC[C@@H]4C)nc3C)ncc2c1` [III-59] stands ≤ 0.02 µM; under `Cc1c[nH]c(=O)cc1-c1cc(C(C)C)c2nc(Nc3cnn(CCN4CCOC[C@@H]4C)c3C)ncc2c1` [III-60], ≤ 0.02 µM.
Under `Cc1c[nH]c(=O)cc1-c1cc(C(C)C)c2nc(Nc3cn(CCN4CCOC[C@H]4C)nc3C)ncc2c1` [III-61] stands 0.02 to 0.1 µM; under `Cc1c[nH]c(=O)cc1-c1cc(C(C)C)c2nc(Nc3cnn(CCN4CCOC[C@H]4C)c3C)ncc2c1` [III-62], ≤ 0.02 µM; under `Cc1c[nH]c(=O)cc1-c1cc(C(C)C)c2nc(Nc3cn(CCN4CCCC4)nc3C)ncc2c1` [III-64], ≤ 0.02 µM.
